According to publication PMC5327789 (Journal of natural products, 2016):
pIC50: −log10 of the molar value.

What was measured:
[1] = test system: WI-38 cell line (normal embryonic lung tissue); type: cell-based
[2] = test system: P. falciparum strain Dd2 (chloroquine-resistant); assay: P. falciparum in vitro growth inhibition assay; type: cell-based, Plasmodium falciparum; conditions: for antiplasmodial activity in words: highest concentration tested 25 μM

Compound: COC(=O)CCC(=O)OC/C(C)=C/C(=O)OC[C@]1(O)[C@H]2C[C@H]2[C@]2(C)[C@@H]3C[C@@]4(OO)C5=C(/C(=C(\C)C(=O)OC)C(=O)[C@H](O)[C@@]5(C)[C@@H]5C[C@@H]54)[C@@]34OC(=O)C(CO)=C4C[C@@H]12 [Compound 4, Fortunilide D]
- increase of toxicity toward mammalian cells compared with counterpart ([1]; human, 24 h): 6 fold

Compound: COC(=O)/C(C)=C1/C(=O)[C@H](O)[C@]2(C)C3=C(C[C@@H]4[C@]5(OC(=O)C6=C5C[C@H]5[C@](O)(COC(=O)/C=C(\C)COC(=O)CCC(=O)OC6)[C@H]6C[C@H]6[C@]45C)[C@H]31)[C@H]1C[C@H]12 [Compound 7, Fortunilide G]
- decrease of mammalian cytotoxicity compared with counterpart ([1]; human, 24 h): 5 fold

Compound: COC(=O)/C(C)=C1\C(=O)[C@H](O)[C@]2(C)C3=C(C[C@@H]4[C@]5(OC(=O)C(C)=C5C[C@H]5[C@H](COC(C)=O)[C@H]6C[C@H]6[C@]45C)[C@H]31)[C@H]1C[C@H]12 [Compound 25, shizukaol E]
- antiplasmodial activity in words [2]: micromolar range

Compound: C/C=C(\C)C(=O)OC[C@]1(O)[C@H]2C[C@H]2[C@]2(C)[C@@H]3C[C@@]4(O)C5=C(/C(=C(\C)C(=O)OC)C(=O)[C@H](O)[C@@]5(C)[C@@H]5C[C@@H]54)[C@@]34OC(=O)C(COC(C)=O)=C4C[C@@H]12 [Compound 27, sarcandrolide E]
- antiplasmodial activity in words [2]: inactive

Compound: COC(=O)/C(C)=C1\C(=O)[C@H](O)[C@]2(C)C3=C(C[C@@H]4[C@]5(OC(=O)C6=C5C[C@H]5[C@](O)(COC(=O)/C(C)=C/COC(=O)[C@@H](O)CC(=O)OC6)[C@H]6C[C@H]6[C@]45C)[C@H]31)[C@H]1C[C@H]12 [Compound 29, shizukaol G]
- increase of toxicity toward mammalian cells compared with counterpart ([1]; human, 24 h): ~ 10 fold

Compound: C=C1[C@@H]2C[C@@H]2[C@]2(C)[C@@H]3CC4=C5[C@H](/C(=C(\C)C(=O)OC)C(=O)[C@H](O)[C@@]5(C)[C@@H]5C[C@H]45)[C@@]34OC(=O)C(C)=C4C[C@@H]12 [Compound 32, shizukaol A]
- antiplasmodial activity in words [2]: micromolar range

Compound: shizukaol C [Compound 17]
- pIC50 ([2]; read-out: P. falciparum IC50, Table 6): 7.68
- pIC50 ([1]; read-out: WI-38 IC50, WI-38 cell line, 24 h incubation): 6.11
